Source: US6929685B2, “Alkylamine derivatives as antifouling agents” (Bayer Atiengesellschaft, priority 2001, dated 2005)

Key:
Settings in all cases: Dutch harbor, sea water
[1] = test system: hard fouling; assay: Raft panel static immersion test of antifouling paints: hard fouling; design: key: G: Not present; Some light slime; F: Overall covered
From the text: (§1) The prepared paints have been evaluated on can stability, adhesion and film defects. The antifouling performance has been tested by application of the paints on raft panels. At first the steel panels had been protected with a standard anticorrosive system for marine environments (300 μm in dft). The to be tested antifouling paint had been applied in 2 layers with a total dry film thickness between 200 and 300 μm. Finally the panels were subjected to a static immersion test on rafts at sea harbors in Holland. The paints were inspected for the presence of fouling (% of area covered with fouling organisms) and of film defects every two months. The tested paint formulations are represented in Table 1.
(§2) Further explanations to Table 1: • 1. Model coatings of type 1 (MC-1A/B/C) are for the evaluation of the algicidal properties of the claimed structures at three different representative weight-% next to 35% cuprous oxide. Good performing references are model coating MC-2 and MC-3 [35% cuprous oxide+3% Seanine (MC-2) or 35% cuprous oxide+3% Irgarol (MC-3)]. Base level references are “cuprous oxide only” formulations [cuprous oxide only (35% (MC4) and 50% level (MC-5)]. • 2. Model coatings of type 6 and 7 are for the evaluation of the activity of the claimed structures against “hard fouling” in combination with two different types of algicides: claimed structure (1/2/4%; MC-6-A/B/C)+3% Seanine or claimed structure (1/2/4%; MC-7-A/B/C)+3% Irgarol). Base level references are “algicide only” formulations with 3% Seanine (MC-8) or 3% Irgarol (MC-9).
(§3) 3. Model coatings of type 10 (MC-10A/B) evaluate the total spectrum of biocidal activity by using the claimed structure as only biocide at 2 levels (4 and 8 w %). Good performing references are “cuprous oxide only” formulations [cuprous oxide 35% (MC-4) and 50% (MC-5)]. As blank serves model coating 11 (MC-1 1) containing no biocide at all.
(§4) The claimed structures were tested at several levels of dosage with and without an algicide as co-biocide. The following formulations were used for comparison: formulations with cuprous oxide, formulations with cuprous oxide and commercial co-biocides, a blank and two formulations that only contained the co-biocide and finally a commercial tributyltin-releasing self polishing system.
(§5) An even better protection can be obtained by combining claimed structures with co-biocides like the algicides that are commonly used for antifoulings.

[2] = test system: slime; assay: Raft panel static immersion test of antifouling paints: slime; design: key: G: Not present; Some light slime; F: Overall covered
From the text: as §1, §2, §3, §4, §5

[3] = test system: fouling organisms; assay: Raft panel static immersion test of antifouling paints: overall; design: key: good (G); satisfactory (S); failure (F)
From the text: as §1, §2, §3, §4, §5

[4] = test system: algae; assay: Raft panel static immersion test of antifouling paints: algae; design: key: G: Not present; Some light slime; F: Overall covered
From the text: as §1, §2, §3, §4, §5

[5] = model coating 1A: 35% Cu2O + 1% of compound
[6] = model coating 1B: 35% Cu2O + 2% of compound
[7] = model coating 1C: 35% Cu2O + 3% of compound
[8] = model coating 6C: 4% of compound + 3% Seanine
[9] = model coating 10B: 8% of compound as only biocide
[10] = model coating 6A: 1% of compound + 3% Seanine
[11] = model coating 6B: 2% of compound + 3% Seanine
[12] = model coating 7A: 1% of compound + 3% Irgarol
[13] = model coating 7B: 2% of compound + 3% Irgarol
[14] = model coating 7C: 4% of compound + 3% Irgarol
[15] = model coating 10A: 4% of compound as only biocide

| Structure (SMILES) | Performance (1 yr immersed) Hard fouling [1, 5] | Performance (1 yr immersed) Hard fouling [1, 6] | Performance (1 yr immersed) Hard fouling [1, 7] | Performance (1 yr immersed) Hard fouling [1, 8] | Performance (1 yr immersed) Hard fouling [1, 9] | Performance (1 yr immersed) Slime [2, 5] | Performance (1 yr immersed) Slime [2, 6] | Performance (1 yr immersed) Slime [2, 7] | Performance (1 yr immersed) Slime [2, 10] | Performance (1 yr immersed) Slime [2, 11] | Performance (1 yr immersed) Slime [2, 8] | Performance (1 yr immersed) Slime [2, 12] | Performance (1 yr immersed) Slime [2, 13] | Performance (1 yr immersed) Slime [2, 14] | Performance (1 yr immersed) Slime [2, 15] | Performance (1 yr immersed) Slime [2, 9] | Performance (1 yr immersed) Overall [3, 5] | Performance (1 yr immersed) Overall [3, 6] | Performance (1 yr immersed) Overall [3, 7] | Performance (1 yr immersed) Overall [3, 10] | also measured |
| --- | --- | --- | --- | --- | --- | --- | --- | --- | --- | --- | --- | --- | --- | --- | --- | --- | --- | --- | --- | --- | --- |
| O=CNCCCCCCCCCC(Br)CBr (centres unmarked) [Compound 3, N-formyl-10,11-dibromoundecylamine] | G | G | G | G | G | S | S | G | S | S | G | S | S | S | F | S | S | S | G | F | Performance (1 yr immersed) Overall [3, 11]: S; Performance (1 yr immersed) Overall [3, 8]: G; Performance (1 yr immersed) Overall [3, 12]: F; Performance (1 yr immersed) Overall [3, 13]: S; Performance (1 yr immersed) Overall [3, 14]: S; Performance (1 yr immersed) Overall [3, 15]: F; Performance (1 yr immersed) Overall [3, 9]: S; Performance (1 yr immersed) Algae [4, 6]: G; Performance (1 yr immersed) Algae [4, 7]: G; Performance (1 yr immersed) Algae [4, 10]: G; Performance (1 yr immersed) Algae [4, 11]: G; Performance (1 yr immersed) Algae [4, 8]: G; Performance (1 yr immersed) Algae [4, 12]: G; Performance (1 yr immersed) Algae [4, 13]: G; Performance (1 yr immersed) Algae [4, 14]: G |
| COC(=O)NCCCCCCBr [Compound 2, N-methoxycarbonyl-6-bromohexylamine] | G | G | G | G | G | S | S | G | S | S | G | S | S | S | F | S | S | S | G | F | Performance (1 yr immersed) Overall [3, 11]: S; Performance (1 yr immersed) Overall [3, 8]: G; Performance (1 yr immersed) Overall [3, 12]: F; Performance (1 yr immersed) Overall [3, 13]: S; Performance (1 yr immersed) Overall [3, 14]: S; Performance (1 yr immersed) Overall [3, 15]: F; Performance (1 yr immersed) Overall [3, 9]: S; Performance (1 yr immersed) Algae [4, 6]: G; Performance (1 yr immersed) Algae [4, 7]: G; Performance (1 yr immersed) Algae [4, 10]: G; Performance (1 yr immersed) Algae [4, 11]: G; Performance (1 yr immersed) Algae [4, 8]: G; Performance (1 yr immersed) Algae [4, 12]: G; Performance (1 yr immersed) Algae [4, 13]: G; Performance (1 yr immersed) Algae [4, 14]: G |
| CCCCCCCCCCCNC=O [Compound 9, N-formyl-1-aminoundecane] | G | G | G | G | G | S | S | G | S | S | G | S | S | S | F | S | S | S | G | F | Performance (1 yr immersed) Overall [3, 11]: S; Performance (1 yr immersed) Overall [3, 8]: G; Performance (1 yr immersed) Overall [3, 12]: F; Performance (1 yr immersed) Overall [3, 13]: S; Performance (1 yr immersed) Overall [3, 14]: S; Performance (1 yr immersed) Overall [3, 15]: F; Performance (1 yr immersed) Overall [3, 9]: S; Performance (1 yr immersed) Algae [4, 6]: G; Performance (1 yr immersed) Algae [4, 7]: G; Performance (1 yr immersed) Algae [4, 10]: G; Performance (1 yr immersed) Algae [4, 11]: G; Performance (1 yr immersed) Algae [4, 8]: G; Performance (1 yr immersed) Algae [4, 12]: G; Performance (1 yr immersed) Algae [4, 13]: G; Performance (1 yr immersed) Algae [4, 14]: G |
| O=CNCCCCCCCCCCCBr [Compound 7, N-formyl-11-bromo-undecyl-1-amine] | G | G | G | G | G | S | S | G | S | S | G | S | S | S | F | S | S | S | G | F | Performance (1 yr immersed) Overall [3, 11]: S; Performance (1 yr immersed) Overall [3, 8]: G; Performance (1 yr immersed) Overall [3, 12]: F; Performance (1 yr immersed) Overall [3, 13]: S; Performance (1 yr immersed) Overall [3, 14]: S; Performance (1 yr immersed) Overall [3, 15]: F; Performance (1 yr immersed) Overall [3, 9]: S; Performance (1 yr immersed) Algae [4, 6]: G; Performance (1 yr immersed) Algae [4, 7]: G; Performance (1 yr immersed) Algae [4, 10]: G; Performance (1 yr immersed) Algae [4, 11]: G; Performance (1 yr immersed) Algae [4, 8]: G; Performance (1 yr immersed) Algae [4, 12]: G; Performance (1 yr immersed) Algae [4, 13]: G; Performance (1 yr immersed) Algae [4, 14]: G |
